{"source": "patent US6756509B2", "about": "“Method for purifying crude 2,6-naphthalenedicarboxylic acid” (Kobe Steel, Ltd., priority 2001, dated 2004)", "key": {"[1]": {"assay": "solubility in water at room temperature", "type": "physicochemical", "description": "Preferably, the reduction reaction is performed at a temperature in the range of 280 to 350° C. […] In addition, in order to maintain the liquid phase at a high temperature in the range described above, the pressure must be the saturated vapor pressure or higher (150 to 250 atm). Fortunately, using hydrogen dissolved in water prevents the equipment from deteriorating. Specifically, if hydrogen gas is supplied to a water medium containing 2,6-NDA, the hydrogen gas is used at such a high temperature and high pressure, consequently making the reactor brittle. In order to prevent the embrittlement, pressure-resistant equipment, which is expensive, is required."}, "[2]": {"assay": "solubility in alcohol at room temperature"}}, "data": [{"smiles": "O=C(O)c1ccc2cc(C(=O)O)ccc2c1", "note": "[2,6-NDA, 2,6-naphthalenedicarboxylic acid]", "values": [{"measurement": "solubility in water", "setting": "[1]", "value": "slightly soluble or insoluble"}, {"measurement": "solubility in alcohols", "setting": "[2]; any alcohols", "value": "hardly dissolves"}]}, {"smiles": "O=C(O)c1ccc2ccccc2c1", "note": "[2-NA, 2-naphthoic acid]", "values": [{"measurement": "amount that dissolves in ethanol", "setting": "[2]; ethanol", "value": 10, "unit": "mass %"}]}]}
